Assay [1] concerns the target T1, catalytic domain of human Bub1 (amino acids 704-1085) (Homo sapiens, UniProt O43683).
T1 construct: catalytic domain of human Bub1 (amino acids 704-1085); His6 (N); made in house; host or cells: Hi5 insect cells
As to the kind of experiment: Bub1 kinase assay (TR-FRET). The class given is biochemical. The procedure:
To this end, 100-fold concentrated compound solutions (in DMSO) were previously prepared by serial dilution (1:3.4) of 2 mM stocks in a clear low volume 384-well source microtiter plate (Greiner Bio-One, Frickenhausen, Germany), from which 50 nL of compounds were transferred into a black low volume test microtiter plate from the same supplier. […] The resulting mixture (5 μL final volume) was incubated at 22° C. during 60 min., and the reaction was stopped by the addition of 5 μL of an aqueous EDTA-solution (50 mM EDTA, in 100 mM HEPES pH 7.5 and 0.2% (w/v) bovine serum albumin) which also contained the TR-FRET detection reagents (0.2 μM streptavidin-XL665 [Cisbio Bioassays, Codolet, France] and 1 nM anti-phoshoSerine antibody [Merck Millipore, cat. #35-001] and 0.4 nM LANCE EU-W1024 labeled anti-mouse IgG antibody [Perkin-Elmer, product no. AD0077, alternatively a Terbium-cryptate-labeled anti-mouse IgG antibody from Cisbio Bioassays can be used]). The stopped reaction mixture was further incubated 1 h at 22° C. in order to allow the formation of complexes between peptides and detection reagents. Subsequently, the amount of product was evaluated by measurement of the resonance energy transfer from the Eu-chelate-antibody complex recognizing the Phosphoserine residue to the streptavidin-XL665 bound to the biotin moiety of the peptide.

The subject of another assay is HeLa cell line. As to the kind of experiment: Proliferation assay (HeLa cell line). In kind it is cell-based. Conditions: Homo sapiens, 96 h, read-out: Biological Assay 2: Proliferation assay (HeLa cell line) median IC50. The procedure: (§1) Cultivated tumor cells (cells were ordered from ATCC, except HeLa-MaTu and HeLa-MaTu-ADR, which were ordered from EPO-GmbH, Berlin) were plated at a density of 1000 to 5000 cells/well, depending on the growth rate of the respective cell line, in a 96-well multititer plate in 200 μL of their respective growth medium supplemented 10% fetal calf serum. After 24 hours, the cells of one plate (zero-point plate) were stained with crystal violet (see below), while the medium of the other plates was replaced by fresh culture medium (200 μL), to which the test substances were added in various concentrations (0 μM, as well as in the range of 0.001-10 μM; the final concentration of the solvent dimethyl sulfoxide was 0.5%). The cells were incubated for 4 days in the presence of test substances. Cell proliferation was determined by staining the cells with crystal violet: the cells were fixed by adding 20 μL/measuring point of an 11% glutaric aldehyde solution for 15 minutes at room temperature. After three washing cycles of the fixed cells with water, the plates were dried at room temperature. The cells were stained by adding 100 μL/measuring point of a 0.1% crystal violet solution (pH 3.0). After three washing cycles of the stained cells with water, the plates were dried at room temperature. The dye was dissolved by adding 100 μl/measuring point of a 10% acetic acid solution. Absorbtion was determined by photometry at a wavelength of 595 nm. The change of cell number, in percent, was calculated by normalization of the measured values to the absorbtion values of the zero-point plate (=0%) and the absorbtion of the untreated (0 μm) cells (=100%). The IC50 values were determined by means of a 4 parameter fit.

A further assay has as its system HeLa-MaTu-ADR cell line. The assay is described as follows: Proliferation assay (HeLa-MaTu-ADR cell line). In kind it is cell-based. As to conditions: 96 h, read-out: Biological Assay 2: Proliferation assay (HeLa-MaTu-ADR cell line) median IC50. The procedure:
as §1

For a further assay, the system named is NCl-H460 cell line. As to the kind of experiment: Proliferation assay (NCI-H460 cell line). In kind it is cell-based. Conditions: Homo sapiens, NCI-H460, 96 h, read-out: Biological Assay 2: Proliferation assay (NCl-H460 cell line) median IC50. The procedure: as §1
The test system of a further assay is DU145 cell line. The assay is described as follows: Proliferation assay (DU145 cell line). In kind it is cell-based. Conditions: Homo sapiens, DU-145, 96 h, read-out: Biological Assay 2: Proliferation assay (DU145 cell line) median IC50. The procedure: as §1
In another assay the test system is Caco2 cell line. The assay is described as follows: Proliferation assay (Caco2 cell line). Conditions: Homo sapiens, Caco-2, 96 h, read-out: Biological Assay 2: Proliferation assay (Caco2 cell line) median IC50. In kind it is cell-based. The procedure:
as §1

The subject of another assay is B16F10 cell line. As to the kind of experiment: Proliferation assay (B16F10 cell line). Conditions: Mus musculus, B16-F10, 96 h, read-out: Biological Assay 2: Proliferation assay (B16F10 cell line) median IC50. The class given is cell-based. The procedure:
as §1

Where [2] appears, read: 10 μM ATP, 1 μM peptide substrate, TR-FRET, read-out: Biological Assay 1: Bub1 kinase assay median IC50.
Setting [3] is: 4 days incubation, crystal violet staining.
[4] abbreviates: HeLa-MaTu-ADR, 4 days incubation, crystal violet staining.
Setting [5] is: NCl-H460, 4 days incubation, crystal violet staining.
The mark [6] stands for this setting: DU145, 4 days incubation, crystal violet staining.
The mark [7] stands for this setting: Caco2, 4 days incubation, crystal violet staining.
The mark [8] stands for this setting: B16F10, 4 days incubation, crystal violet staining.

For twelve molecules, IC50 results are on record in patent publication US20160145267A1, “HETEROARYL SUBSTITUTED PYRAZOLES” (BAYER PHARMA AKTIENGESELLSCHAFT, priority 2013, published 2016).

SMILES strings stand for the structures. Where two headings read alike, the source gives them in different places. Some results are limits rather than exact numbers.

T1 sequence (O43683 704-1085): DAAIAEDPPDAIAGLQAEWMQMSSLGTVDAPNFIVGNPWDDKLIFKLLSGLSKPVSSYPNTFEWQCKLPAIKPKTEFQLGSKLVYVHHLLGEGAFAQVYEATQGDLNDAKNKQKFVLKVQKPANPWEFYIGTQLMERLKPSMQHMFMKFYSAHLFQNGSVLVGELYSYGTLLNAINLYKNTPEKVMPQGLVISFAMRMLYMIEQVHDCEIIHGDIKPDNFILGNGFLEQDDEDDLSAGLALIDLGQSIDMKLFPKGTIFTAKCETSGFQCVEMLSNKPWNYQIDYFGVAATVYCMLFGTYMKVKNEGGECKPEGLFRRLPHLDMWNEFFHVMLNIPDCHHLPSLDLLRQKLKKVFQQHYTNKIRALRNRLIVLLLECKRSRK

Take `CCOc1cc(F)c(Cn2nc(-c3nc(N)c(OC)c(Nc4ccncn4)n3)c(C)c2C2CC2)c(F)c1` [Example 2-1-5, 2-[5-cyclopropyl-1-(4-ethoxy-2,6-difluorobenzyl)-4-methyl-1H-pyrazol-3-yl]-5-methoxy-N-(pyrimidin-4-yl)pyrimidine-4,6-diamine]: the IC50 in assay [1] (setting [2]) was 5.3 nM; with HeLa cell line, 5100 nM; in the assay on HeLa-MaTu-ADR cell line it was 3500 nM; with NCl-H460 cell line, 7400 nM; with DU145 cell line it was 6900 nM; with Caco2 cell line, 1900 nM. The IC50 in the assay with B16F10 cell line amounted to 1800 nM.

Regarding `CCNC(=O)Nc1cc(Nc2ccncc2)nc(-c2nn(Cc3c(F)cc(OCC)cc3F)c(C3CC3)c2C)n1` [Example 2-1-10, 1-{2-[5-cyclopropyl-1-(4-ethoxy-2,6-difluorobenzyl)-4-methyl-1H-pyrazol-3-yl]-6-(pyridin-4-ylamino)pyrimidin-4-yl}-3-ethylurea], the IC50 in assay [1] (setting [2]) worked out at 48 nM; with HeLa cell line, 1700 nM; with HeLa-MaTu-ADR cell line, 1100 nM; with NCl-H460 cell line, 1500 nM; in the assay on DU145 cell line, 2800 nM; in the assay on Caco2 cell line, 1400 nM. Further, the IC50 in the assay with B16F10 cell line came out at 1200 nM.

`CCOc1cc(F)c(Cn2nc(-c3nc(Nc4ccncn4)cc(Nc4ccncn4)n3)c(C)c2C2CC2)c(F)c1` [Example 2-2-3, 2-[5-cyclopropyl-1-(4-ethoxy-2,6-difluorobenzyl)-4-methyl-1H-pyrazol-3-yl]-N,N′-di(pyrimidin-4-yl)pyrimidine-4,6-diamine]: the IC50 in assay [1] (setting [2]) was 20 nM; in the assay with HeLa cell line, 560 nM; with HeLa-MaTu-ADR cell line, 700 nM; with NCl-H460 cell line, 1600 nM; in the assay on DU145 cell line it was 2100 nM; in the assay with Caco2 cell line, 2600 nM. Besides, the IC50 in the assay with B16F10 cell line stood at 500 nM.

For `CCOc1cc(F)c(Cn2nc(-c3nc(Nc4ccncc4)c(N4CCOCC4)c(Nc4ccncc4)n3)c(C)c2C2CC2)c(F)c1` [Example 2-2-6, 2-[5-cyclopropyl-1-(4-ethoxy-2,6-difluorobenzyl)-4-methyl-1H-pyrazol-3-yl]-5-(morpholin-4-yl)-N,N′-di(pyridin-4-yl)pyrimidine-4,6-diamine], the IC50 in assay [1] was 220 nM; in the assay with HeLa cell line (setting [3]), 7000 nM; with HeLa-MaTu-ADR cell line (setting [4]), 820 nM; with NCl-H460 cell line (setting [5]), 1100 nM; in the assay with DU145 cell line (setting [6]) it was 1900 nM; with Caco2 cell line (setting [7]) it was 2600 nM. Also, the IC50 in the assay with B16F10 cell line (setting [8]) worked out at 990 nM.

Take `CCOc1cc(F)c(Cn2nc(-c3nc(Nc4ccncn4)nc(Nc4ccncn4)n3)c(C)c2C2CC2)c(F)c1` [Example 2-2-9, 6-[5-cyclopropyl-1-(4-ethoxy-2,6-difluorobenzyl)-4-methyl-1H-pyrazol-3-yl]-N,N′-di(pyrimidin-4-yl)-1,3,5-triazine-2,4-diamine]: the IC50 in assay [1] was found to be 1700 nM; with HeLa cell line, 1700 nM; in the assay on HeLa-MaTu-ADR cell line (setting [4]) it was 10000 nM; with NCl-H460 cell line (setting [5]), 9900 nM; in the assay on DU145 cell line (setting [6]), 3200 nM; with Caco2 cell line (setting [7]) it was 3500 nM. Moreover, the IC50 in the assay with B16F10 cell line (setting [8]) amounted to 8800 nM.

Take `CCOc1cc(F)c(Cn2nc(-c3nc(Nc4ccncc4)c(OCCOC)c(Nc4ccncc4)n3)c(C)c2C2CC2)c(F)c1` [Example 2-2-12, 2-[5-cyclopropyl-1-(4-ethoxy-2,6-difluorobenzyl)-4-methyl-1H-pyrazol-3-yl]-5-(2-methoxyethoxy)-N,N′-di(pyridin-4-yl)pyrimidine-4,6-diamine]: the IC50 in assay [1] (setting [2]) was found to be 480 nM; with HeLa cell line, 970 nM; in the assay on HeLa-MaTu-ADR cell line, 730 nM; in the assay with NCl-H460 cell line it was 1200 nM; with DU145 cell line, 1700 nM; in the assay with Caco2 cell line, 1100 nM. In addition, in the assay with B16F10 cell line, the IC50 was determined as 400 nM.

In the case of `CCOc1cc(F)c(Cn2nc(-c3nc(Nc4ccncn4)c(OCCOC)c(Nc4ccncn4)n3)c(C)c2C2CC2)c(F)c1` [Example 2-2-13, 2-[5-cyclopropyl-1-(4-ethoxy-2,6-difluorobenzyl)-4-methyl-1H-pyrazol-3-yl]-5-(2-methoxyethoxy)-N,N′-di(pyrimidin-4-yl)pyrimidine-4,6-diamine], the IC50 was 120 nM in assay [1] and 10000 nM with HeLa cell line (setting [3]).

For `CCOc1cc(F)c(Cn2nc(-c3nc(Nc4ccncc4)c(NC(=O)COC)c(Nc4ccncc4)n3)c(C)c2C2CC2)c(F)c1` [Example 2-2-14, N-{2-[5-cyclopropyl-1-(4-ethoxy-2,6-difluorobenzyl)-4-methyl-1H-pyrazol-3-yl]-4,6-bis(pyridin-4-ylamino)pyrimidin-5-yl}-2-methoxyacetamide], the IC50 in assay [1] (setting [2]) is 350 nM; in the assay with HeLa cell line, 2800 nM.

Turning to `CCOc1cc(F)c(Cn2nc(-c3nc(Nc4ccncn4)c(NC(=O)COC)c(Nc4ccncn4)n3)c(C)c2C2CC2)c(F)c1` [Example 2-2-15, N-{2-[5-cyclopropyl-1-(4-ethoxy-2,6-difluorobenzyl)-4-methyl-1H-pyrazol-3-yl]-4,6-bis(pyrimidin-4-ylamino)pyrimidin-5-yl}-2-methoxyacetamide], the IC50 in assay [1] was 42 nM; in the assay on HeLa cell line (setting [3]), 4700 nM.

For the molecule `CCNC(=O)Nc1c(Nc2ccncc2)nc(-c2nn(Cc3c(F)cc(OCC)cc3F)c(C3CC3)c2C)nc1Nc1ccncc1` [Example 2-2-16, 1-{2-[5-cyclopropyl-1-(4-ethoxy-2,6-difluorobenzyl)-4-methyl-1H-pyrazol-3-yl]-4,6-bis(pyridin-4-ylamino)pyrimidin-5-yl}-3-ethylurea], the IC50 in assay [1] (setting [2]) worked out at 150 nM; in the assay with HeLa cell line it was 2200 nM.

On to `CCOc1cc(F)c(Cn2nc(-c3nc(Nc4ccncc4)c(NS(=O)(=O)CC)c(Nc4ccncc4)n3)c(C)c2C2CC2)c(F)c1` [Example 2-2-17, N-{2-[5-cyclopropyl-1-(4-ethoxy-2,6-difluorobenzyl)-4-methyl-1H-pyrazol-3-yl]-4,6-bis(pyridin-4-ylamino)pyrimidin-5-yl}ethanesulfonamide], for which the values for the IC50 (in assay [1] (setting [2]); in the assay with HeLa cell line) were 760 nM and above 10000 nM, respectively.

As for `CCOc1cc(F)c(Cn2nc(-c3nc(Nc4ccncc4)c(NS(=O)(=O)C(F)(F)F)c(Nc4ccncc4)n3)c(C)c2C2CC2)c(F)c1` [Example 2-2-18, N-{2-[5-cyclopropyl-1-(4-ethoxy-2,6-difluorobenzyl)-4-methyl-1H-pyrazol-3-yl]-4,6-bis(pyridin-4-ylamino)pyrimidin-5-yl}-1,1,1-trifluoromethanesulfonamide], the IC50 in assay [1] (setting [2]) is 13000 nM; in the assay with HeLa cell line, 3000 nM.
